Test: Stability of pure lycopene isomers in n-hexane during storage at room temperature
Format: physicochemical
Details: for concentration 5-Z / concentration 9-Z / concentration 13-Z / concentration all E / concentration x-Z: n-hexane; for transformation pathway during storage: storage in n-hexane
Procedure: Pure 5-Z, 9-Z, 13-Z and all-E lycopene were isolated from isomerised tomato oleoresin (submitted to 1 hour heating), by collecting the fractions containing the corresponding peaks after HPLC separation (see below the experimental conditions). Peaks were collected during two consecutive HPLC runs and the corresponding fractions were pooled.
Amount of total lycopene was determined by reverse phase HPLC on a C18 precolumn (ODS Hypersil, 5 μm, 20×4 mm; Hewlett Packard, Geneva, Switzerland) and a C18 column (Nova pak, 3.9 μm i.d.×300 mm length, Millipore, Volketswil, Switzerland). […] The mobile phase flow rate was 1.5 mL/min. Lycopene isomer profiles were determined by normal phase HPLC according to the method described by Schierle et al. (1997). Food. Chem. 59: 459. Samples of isomerized oleoresins were dissolved in n-hexane containing 50 ppm BHT and spun at maximum speed in an Eppendorf Lab centrifuge. The resulting supernatants were immediately analyzed by HPLC. The HPLC system used was a 1100 series Hewlett-Packard model equipped with an ultraviolet-visible photodiode array detector. Data were simultaneously acquired at 470 nm, 464 nm, 346 nm and 294 nm. Samples (10 μl) were separated using a combination of three Nucleosil 300-5 columns (4 mm internal diameter×250 mm length, Macherey-Nagel). […] Flow rate was 0.8 mL/min. Lycopene Z-isomers were identified according to literature data.
Amounts of lycopene isomers were calculated based on surface areas of the HPLC peaks using the same extinction coefficient as the all-E lycopene. Therefore, the lycopene concentration in products containing Z-isomers is slightly underestimated since it is recognized that the extinction coefficients of Z-isomers are lower than that of the all-E isomer. Conditions for Stability Tests
Stability of lycopene isomers was investigated both in n-hexane and in a tomato oleoresin isomerized by 4 hour heating in ethyl acetate. For this purpose, pure lycopene isomers were stored for 33 days in n-hexane at room temperature and in the absence of light, and the isomerized tomato oleoresin was kept for 55 days at room temperature in the absence of light. Total lycopene concentration and lycopene isomer profiles were measured at various time intervals during the storage.

[1] = room temperature, absence of light, 0 days
[2] = room temperature, absence of light, 1 day
[3] = room temperature, absence of light, 2 days
[4] = room temperature, absence of light, 5 days
[5] = room temperature, absence of light, 12 days
[6] = room temperature, absence of light, 33 days

Row | concentration 5-Z [1] | concentration all E [1] | concentration x-Z [1] | concentration 5-Z [2] | concentration all E [2] | concentration x-Z [2] | concentration 5-Z [3] | concentration all E [3] | concentration x-Z [3] | concentration 5-Z [4] | concentration all E [4] | concentration x-Z [4] | concentration 5-Z [5] | concentration 9-Z [5] | concentration 13-Z [5] | concentration all E [5] | concentration x-Z [5] | concentration 5-Z [6] | concentration 9-Z [6] | concentration 13-Z [6] | Structure (SMILES) | also measured
1 | 0 % of total isomers | 2.4 % of total isomers | 1.0 % of total isomers | 0 % of total isomers | 42.6 % of total isomers | 0 % of total isomers | 0 % of total isomers | 59.8 % of total isomers | 1.5 % of total isomers | 1.9 % of total isomers | 68.9 % of total isomers | 4.3 % of total isomers | 5.3 % of total isomers | 2.6 % of total isomers | 20.8 % of total isomers | 65.5 % of total isomers | 5.8 % of total isomers | 11.7 % of total isomers | 4.2 % of total isomers | 16.9 % of total isomers | CC(C)=CCC/C(C)=C/C=C/C(C)=C/C=C/C(C)=C\C=C\C=C(C)\C=C\C=C(C)\C=C\C=C(/C)CCC=C(C)C [13-Z lycopene] | fraction of the isomer transformed / converted into other isomers (after 33 day storage in n-hexane, room temperature, absence of light): more than 80%; stability compared with the 5-Z, 9-Z and all-E isomers (both stability tests (n-hexane and tomato oleoresin)): much less stable; concentration 9-Z [1]: 0 % of total isomers; concentration 13-Z [1]: 96.6 % of total isomers; concentration 9-Z [2]: 0.4 % of total isomers; concentration 13-Z [2]: 57.0 % of total isomers; concentration 9-Z [3]: 0 % of total isomers; concentration 13-Z [3]: 38.7 % of total isomers; concentration 9-Z [4]: 1.5 % of total isomers; concentration 13-Z [4]: 23.4 % of total isomers; concentration all E [6]: 57.0 % of total isomers; concentration x-Z [6]: 10.2 % of total isomers; transformation pathway during storage: mainly converted into the all-E isomer
2 | 1.8 % of total isomers | 4.4 % of total isomers | 0 % of total isomers | 2.1 % of total isomers | 5.8 % of total isomers | 2.8 % of total isomers | 11.6 % of total isomers | 6.0 % of total isomers | 5.9 % of total isomers | 1.5 % of total isomers | 5.6 % of total isomers | 8.6 % of total isomers | 2.3 % of total isomers | 66.5 % of total isomers | 8.2 % of total isomers | 7.0 % of total isomers | 15.9 % of total isomers | 4.1 % of total isomers | 56.0 % of total isomers | 10.5 % of total isomers | CC(C)=CCC/C(C)=C/C=C/C(C)=C\C=C\C(C)=C\C=C\C=C(C)\C=C\C=C(C)\C=C\C=C(/C)CCC=C(C)C [9-Z lycopene] | concentration 9-Z [1]: 93.3 % of total isomers; concentration 13-Z [1]: 0.6 % of total isomers; concentration 9-Z [2]: 87.1 % of total isomers; concentration 13-Z [2]: 2.3 % of total isomers; concentration 9-Z [3]: 83.5 % of total isomers; concentration 13-Z [3]: 3.1 % of total isomers; concentration 9-Z [4]: 79.2 % of total isomers; concentration 13-Z [4]: 5.2 % of total isomers; concentration all E [6]: 9.8 % of total isomers; concentration x-Z [6]: 19.7 % of total isomers; transformation pathway during storage: principally transformed into other Z-isomers
3 | 0.5 % of total isomers | 97.6 % of total isomers | 0.1 % of total isomers | 1.2 % of total isomers | 86.0 % of total isomers | 1.5 % of total isomers | 2.6 % of total isomers | 78.4 % of total isomers | 3.0 % of total isomers | 3.8 % of total isomers | 69.3 % of total isomers | 5.1 % of total isomers | 6.4 % of total isomers | 2.0 % of total isomers | 18.2 % of total isomers | 67.8 % of total isomers | 5.6 % of total isomers | 13.4 % of total isomers | 3.8 % of total isomers | 15.7 % of total isomers | CC(C)=CCC/C(C)=C/C=C/C(C)=C/C=C/C(C)=C/C=C/C=C(C)/C=C/C=C(C)/C=C/C=C(\C)CCC=C(C)C [all-E lycopene] | concentration 9-Z [1]: 0.5 % of total isomers; concentration 13-Z [1]: 1.4 % of total isomers; concentration 9-Z [2]: 1.2 % of total isomers; concentration 13-Z [2]: 10.1 % of total isomers; concentration 9-Z [3]: 1.1 % of total isomers; concentration 13-Z [3]: 15.0 % of total isomers; concentration 9-Z [4]: 2.2 % of total isomers; concentration 13-Z [4]: 19.6 % of total isomers; concentration all E [6]: 58.7 % of total isomers; concentration x-Z [6]: 8.4 % of total isomers
4 | 95.5 % of total isomers | 1.1 % of total isomers | 3.4 % of total isomers | 84.3 % of total isomers | 2.2 % of total isomers | 13.5 % of total isomers | 76.9 % of total isomers | 2.4 % of total isomers | 20.6 % of total isomers | 68.4 % of total isomers | 3.9 % of total isomers | 27.7 % of total isomers | 65.3 % of total isomers | 0.7 % of total isomers | 1.7 % of total isomers | 5.6 % of total isomers | 26.7 % of total isomers | 53.5 % of total isomers | 2.3 % of total isomers | 2.8 % of total isomers | CC(C)=CCC\C(C)=C/C=C/C(C)=C/C=C/C(C)=C/C=C/C=C(C)/C=C/C=C(C)/C=C/C=C(\C)CCC=C(C)C [5-Z lycopene] | concentration all E [6]: 10.7 % of total isomers; concentration x-Z [6]: 30.7 % of total isomers; transformation pathway during storage: principally transformed into other Z-isomers
